Test results taken from ChEMBL document CHEMBL1268825, “Inhibitory activity of four demethoxy fluorinated anthracycline analogs against five human-tumor cell lines” (2010).
≈ marks a conversion by molar mass, not a printed value. Calls of active or inactive are those of the source. The calls are words filed in the database; no cut-off is given here.

How the values were obtained:
Format in all cases: functional
MCF7 = test: Cytotoxicity against human MCF7 cells after 24 hrs by SRB assay; conditions: MCF7, 24 h, read-out: ED50 (the source's name)
A549 = test: Cytotoxicity against human A549 cells after 24 hrs by SRB assay; conditions: A549, 24 h, read-out: ED50 (the source's name)
[1] = (§1) Cytotoxicity against human RPMI cells after 24 hrs by SRB assay; conditions: read-out: ED50 (the source's name)
U-251 = test: Cytotoxicity against human U251 cells after 24 hrs by SRB assay; conditions: for EC50: U-251, 24 h, read-out: ED50 (the source's name)
HT-29 = test: Cytotoxicity against human HT-29 cells after 24 hrs by SRB assay; conditions: HT-29, 24 h, read-out: ED50 (the source's name)
RPMI = test: as §1

CC(=O)[C@]1(O)Cc2c(O)c3c(c(O)c2[C@@H](O[C@@H]2O[C@@H](C)[C@@H](O)[C@@H](O)[C@H]2F)C1)C(=O)c1ccccc1C3=O
EC50 (MCF7): 0.03 µg/mL (≈ 0.0581 µM) | EC50 (A549): 0.008 µg/mL (≈ 0.0155 µM) | EC50 [1]: 0.03 µg/mL (≈ 0.0581 µM) | EC50 (U-251): 0.04 µg/mL (≈ 0.0774 µM)

C[C@@H]1O[C@@H](O[C@H]2C[C@](O)(C(=O)CO)Cc3c(O)c4c(c(O)c32)C(=O)c2ccccc2C4=O)[C@H](F)[C@H](O)[C@@H]1O
EC50 (MCF7): 0.02 µg/mL (≈ 0.0376 µM) | EC50 (A549): 0.008 µg/mL (≈ 0.015 µM) | EC50 [1]: 0.02 µg/mL (≈ 0.0376 µM) | EC50 (HT-29): > 0.001 µg/mL | EC50 (U-251): 0.02 µg/mL (≈ 0.0376 µM)

CC(=O)O[C@H]1[C@@H](F)[C@H](O[C@H]2C[C@](O)(C(C)=O)Cc3c(O)c4c(c(O)c32)C(=O)c2ccccc2C4=O)O[C@@H](C)[C@H]1OC(C)=O
EC50 (MCF7): 0.06 µg/mL (≈ 0.0999 µM) | EC50 (A549): 0.07 µg/mL (≈ 0.117 µM) | EC50 [1]: 0.05 µg/mL (≈ 0.0833 µM) | EC50 (HT-29): 0.001 µg/mL (≈ 0.00167 µM) | EC50 (U-251): 0.1 µg/mL (≈ 0.167 µM)

C[C@@H]1O[C@@H](O[C@H]2C[C@](O)(C(=O)CBr)Cc3c(O)c4c(c(O)c32)C(=O)c2ccccc2C4=O)[C@H](F)[C@H](O)[C@@H]1O
EC50 (MCF7): 0.4 µg/mL (≈ 0.672 µM) | EC50 (A549): 0.6 µg/mL (≈ 1.01 µM) | ED50 (RPMI): inactive | ED50 (U-251): inactive

COc1cccc2c1C(=O)c1c(O)c3c(c(O)c1C2=O)C[C@@](O)(C(=O)CO)C[C@@H]3O[C@H]1C[C@H](N)[C@H](O)[C@H](C)O1 [DOXORUBICIN]
EC50 (MCF7): 0.03 µg/mL (≈ 0.0552 µM) | EC50 (A549): 0.03 µg/mL (≈ 0.0552 µM) | EC50 [1]: 0.02 µg/mL (≈ 0.0368 µM) | EC50 (U-251): 0.02 µg/mL (≈ 0.0368 µM)
